In US20130296346A1, “DIPHENYL-AMINE DERIVATIVES: USES, PROCESS OF SYNTHESIS AND PHARMACEUTICAL COMPOSITIONS” (Faes Farma, S.A., priority 2010, published 2013):
Marks after values point to notes of the source that are not given here.

Columns and labels:
[1] = Cytotoxicity for human non-tumoral cells, XTT; format: cell-based; conditions: HUVEC cells (primary, from human cords)
Procedure: The cytotoxicity of the compounds for human non-tumoral cells was studied in fibroblasts, HUVEC cells and resting PBLs (Peripheral Blood lymphocytes).
HUVEC cells were obtained by treating human cords with collagenase type I, […] in Hank's medium incubating 20 minutes at 37° C. Cells were collected afterwards and cultivated in medium M199 with supplements of 20% FBS, 1% P/S and 25 mg/500 ml of medium ECGF, Cells were grown on a 0.2% gelatin matrix.
Distinct amounts of exponentially growing cells were seeded in 96-well flat-bottomed microtiter plates in a final volume of 100 μl were seeded in 96-well flat-bottomed microtiter plates, and incubated at 37° C. in a humidified atmosphere of 5% CO2/95% air for 24 h to allow the cells attach to the plates. Then, cells were incubated with different concentrations of the assayed compound at 37° C. under the 5% CO2/95% air atmosphere for 72 h. Cell proliferation was quantified using the XTT cell proliferation kit (Roche Molecular Biochemicals, Mannheim, Germany) following the manufacturer's instructions. Briefly, a freshly prepared mixture solution (50 μl) of XTT labelling reagent and PMS (N-methyldibenzopyrazine methyl sulfate) electron coupling reagent was added to each well. The resulting mixtures were further incubated for 4 h in a humidified atmosphere (37° C., 5% CO2), and the absorbance of the formazan product generated was measured with a microtiter plate reader at a test wavelength of 490 nm and a reference wavelength of 655 nm. The IC50 (50% inhibitory concentration) was then calculated as the drug concentration causing a 50% inhibition of cell proliferation. Data are shown as mean values of four independent experiments each performed in triplicate.

[2] = system: resting human PBLs; assay: Apoptosis of resting human PBLs; format: cell-based
Procedure: To isolate normal peripheral blood lymphocytes (PBLs), mononuclear cells were obtained from fresh human peripheral blood from healthy volunteers by centrifugation on Ficoll-Hypaque density gradients, washed with phosphate-buffered saline (PBS), and resuspended in RPMI-1640 medium containing 10% (v/v) heat-inactivated FBS, 2 mM L-glutamine, 100 U/ml penicillin, and 100 μg/ml streptomycin as described (Cabaner et al. Br. J. Pharmacol 127:813-825.1999). Monocytes were depleted by culture dish adherence after overnight incubation. Nonadherent cells (lymphocytes) were washed with PBS and collected. PBL preparations were typically 70-75% CD3^+, 24-29% CD 19^+, and less than 0.4% CD 14^+.

[3] = system: MM1S cells; assay: Multiple myeloma xenograft animal model; format: in vivo, CB17-SCID mice; conditions: 2.5 mg/kg i.v. 3 times/week
Procedure: The multiple myeloma (MM) MM1S cell line was cultured in RPMI-1640 medium containing 10% (v/v) heat-inactivated fetal bovine serum, 2 mM L-glutamine, 100 U/ml penicillin, and 100 μg/ml streptomycin at 37° C. in humidified 95% air and 5% CO2. Cells were periodically tested for Mycoplasma infection and found to be negative.
CB 17-severe combined immunodeficiency (SCID) mice (Charles River laboratories, Lyon, France), kept and handled according to institutional guidelines, complying with Spanish legislation under a 12/12 h light/dark cycle at a temperature of 22° C., received a standard diet and acidified water ad libitum. CB17-SCID mice were inoculated subcutaneously into their lower dorsum with 3×10^7MM1S cells in 100 μl PBS and 100 μl Matrigel basement membrane matrix (Becton Dickinson). When tumors were palpable, mice were randomly assigned into cohorts of 10 mice each, receiving i.v. administration (3 times/week) of the compound at the tail. The volume used for each i. v. administration was […] rendering a final drug concentration of 2.5 mg/kg (body weight). Mice i.v. administered with an equal volume of vehicle were run in parallel. The shortest and longest diameter of the tumor were measured with calipers, and tumor volume (10^−3 cm^3) was calculated using the following standard formula: […]. Animals were sacrificed, according to institutional guidelines, when the diameter of their tumors reached 3 cm or when significant toxicity was observed. Animal body weight and any sign of morbidity were monitored. Drug treatment was for 1 month. Then, tumors were isolated, measured and weighed, and a necropsy analysis involving tumors and distinct organs was carried out.

Fc1ccc(CNCCCC=C(c2ccccc2)c2ccccc2)cc1 [Compound 3, (5,5-diphenyl-pent-4-enyl)-(4-fluoro-benzyl)-amine hydrocloride]
IC50 at 72 h [1]: 16 µM
% Apoptosis PBLs ([2]; 10^−4 M): 7.5%
% Apoptosis PBLs ([2]; 10^−5 M): 1.3%
effect on PBLs ([2]; even at 10^−4 M): hardly affect PBLs
MM tumor volume, difference over the control for all measure days ([3]; 1 month): stadistically significant
Tumor Volume ([3]; ex vivo after 1 month): 0.288 cm^3
Tumor Weight ([3]; ex vivo after 1 month): 0.647 g
Inhibition (%) of Tumor Volume ([3]; vs control, 1 month): 92.26** %
Inhibition (%) of Tumor Weight ([3]; vs control, 1 month): 85.84* %
